Measured values published in publication PMC7764330, “Bioassay-Guided Isolation of Anti-Alzheimer Active Components from the Aerial Parts of Hedyotis diffusa and Simultaneous Analysis for Marker Compounds” (Molecules, 2020).
In brackets after ≈: the same amount, converted by molar mass. Read-outs that look alike come from different tables or passages of the source.

Experiments:
[1] = molecular target: T1, β-site amyloid precursor protein cleaving enzyme 1 (BACE1) (Homo sapiens, UniProt P56817); test: BACE1 (β-secretase) FRET enzyme assay; format: biochemical; conditions: mean ± SD, n = 3
T1 construct: purchased Pan Vera Co. (Madison, WI, USA)
Description: (§1) Methanol (MeOH), ethanol (EtOH), n-hexane (Hx), dichloromethane (DCM), ethyl acetate (EA), n-butanol (BuOH) (Samchun Pure Chemical, Pyeongtaek, Gyeonggi, Korea) and distilled water were used for extraction, fractionation, and open column chromatography. Open column chromatography used silica gel 60 (40–63 μm; Merck, Darmstadt, Germany), Sephadex LH-20 (25–100 μm; Pharmacia, Stockholm, Sweden), MCI CHP 20P (Supelco, St. Louis, MO, USA), and octadecyl-silica (ODS) gel (400–500 mesh; Waters, Milford, MA, USA). Methanol-d4 (CD3OD) and dimethyl sulfoxide-d6 (DMSO-d6) were used for NMR analysis. The molecular weight was determined by ultra-high-performance liquid chromatography (UPLC) and high-resolution mass spectrometry (HRMS) by connecting an electrospray ionization hybrid linear trap-quadruple-Orbitrap MS system (ESI/LTQ-Orbitrap) to an Ultimate 3000 rapid separation liquid chromatography (RSLC) system (Thermo, Darmstadt, Germany). A TECAN Sunrise microplate reader and Infinite F200 pro (Männedorf, Zürich, Switzerland) were used for absorbance and fluorescence, respectively. High performance liquid chromatography (HPLC) was performed using Waters 2695 system pump and Waters 996 Photodiode array detector (Waters, Milford, MA, USA); data was extracted with Empower Pro 2.0 software. The separation column was a Waters Kromasil C18 column (4.6 × 250 mm, 5 μm). HPLC-grade solvents (e.g., acetonitrile and distilled water (H2O)) were purchased from J. T. Baker® (Phillipsburg, PA, USA). HPLC-grade acetic acid was purchased from Fisher Chemical (Janssen Pharmaceuticalaan, Geel, Belgium). In addition, analytical-grade dimethyl sulfoxide (DMSO), used as a solvent in the bioassay, was purchased from DEAJUNG Chemical (Siheung, Gyeonggi, Korea). Reagents and solvents, including AChE from electric eel, acetylthiocholine iodide (ATCh), BChE from equine serum, S-butyrylthiocholine iodide (BTCh), 5,5′- dithiobis [2-nitrobenzoic acid] […] The BACE1 (β-secretase) FRET assay kit was purchased from Pan Vera Co. (Madison, WI, USA).
The BACE1 enzyme assay was performed in accordance with the manufacturer’s recommended protocol, with minor modifications. Briefly, the assay mixture contained 1.0 U/mL of BACE1, 50 mM sodium acetate buffer (pH 4.5), the substrate (750 nM Rh-[…]-Quencher in 50 mM ammonium bicarbonate), and samples. […] The reaction mixture was incubated for 60 min at 25 °C in the dark. Prior to measurement, stop solution (2.5 M sodium acetate) was added to the assay mixture. […] All reactions were measured in black 96-well microplates and tested in triplicate. The percentage of inhibition (%) was obtained using the following formula: [1 − (S60 − S0)/(C60 − C0)] × 100, where C60 is the fluorescence of the control after 60 min of incubation, C0 is the initial fluorescence of the control, S60 is the fluorescence of the tested sample after 60 min of incubation, and S0 is the initial fluorescence of the tested sample. BACE1 inhibitory activity assay of each sample was presented in terms of IC50, as calculated from the log dose inhibition curve.

[2] = molecular target: T2, butyrylcholinesterase (BChE) (Equus caballus, UniProt P81908); test: biochemical; conditions: isolated compounds, mean ± SD, n = 3
T2 construct: BChE from equine serum; purchased Sigma-Aldrich Co. (St. Louis, MO, USA); host or cells: equine serum
Description: as §1
(§2) The inhibitory activities of the test samples against ChE (AChE and BChE) were evaluated using the spectrophotometric method developed in a previous study. ATCh and BTCh were used as substrates to measure the inhibitory activities of AChE and BChE, respectively. The assay mixture contained 0.1 M sodium phosphate buffer (pH 7.8), 0.3 U/mL AChE or BChE, 0.5 mM DTNB, 0.6 mM ATCh or BTCh, and the tested sample solution that were mixed and incubated for 15 min at room temperature. […] Reactions started on addition of 10 μL of DTNB and 10 μL of either ATCh or BTCh. The ChE inhibitory activity was monitored based on the formation of the yellow 5-thio-2-nitrobenzoate anion at 412 nm for 15 min that was due to the reaction of DTNB and thiocholine released from ATCh or BTCh. All reactions were measured in 96-well microplates and tested in triplicate. The percentage of inhibition (%) was estimated using the following formula: {(Ac − As)/Ac} × 100, where Ac is the enzyme activity without the test sample and As is the enzyme activity with the test sample.

[3] = molecular target: T3, acetylcholinesterase (AChE) (Electrophorus electricus, UniProt O42275); test: biochemical; format: biochemical; conditions: mean ± SD, n = 3
T3 construct: purchased Sigma-Aldrich Co. (St. Louis, MO, USA)
Description: as §1, §2

[4] = tested on: formation of advanced glycation end-product (AGE); test: Inhibition of formation of AGE (BSA with fructose and glucose, fluorescence); format: biochemical; conditions: mean ± SD, n = 3; for IC50: isolated compounds
Method: The inhibitory activity of the formation of AGE was measured with a spectrophotometric method developed previously, with slight modifications. Briefly, the assay mixture contained 50 mM phosphate buffer (pH 7.4) with 0.02% sodium azide, 0.4 M fructose and glucose, bovine serum albumin (10 mg/mL), and the sample. Next, the assay mixture was incubated at 60 °C for 2 days. After incubation, 200 μL of the reaction product was measured at excitation and emission wavelengths of 350 and 450 nm, respectively. All samples and positive control (aminoguanidine) were dissolved in 10% analytical-grade DMSO at five different final concentrations. All reactions were measured in black 96-well microplates and tested in triplicate. The percentage of inhibition (%) of the formation of AGE was estimated using the following formula: {(Ac − As)/Ac} × 100, where Ac is the fluorescence of the control and As is the fluorescence of the sample. Inhibition of the formation of AGE of each sample was presented in terms of IC50, as calculated from the log dose-inhibition curve.

neuroinflammation = tested on: neuroinflammation; parameters: method as in PMID 27623545; conditions: for the treatment of AD; cited from earlier work
[5] = isolated compounds, read-out: IC50 AChE
[6] = isolated compounds, read-out: IC50 BACE1

T3 sequence (O42275 24-633): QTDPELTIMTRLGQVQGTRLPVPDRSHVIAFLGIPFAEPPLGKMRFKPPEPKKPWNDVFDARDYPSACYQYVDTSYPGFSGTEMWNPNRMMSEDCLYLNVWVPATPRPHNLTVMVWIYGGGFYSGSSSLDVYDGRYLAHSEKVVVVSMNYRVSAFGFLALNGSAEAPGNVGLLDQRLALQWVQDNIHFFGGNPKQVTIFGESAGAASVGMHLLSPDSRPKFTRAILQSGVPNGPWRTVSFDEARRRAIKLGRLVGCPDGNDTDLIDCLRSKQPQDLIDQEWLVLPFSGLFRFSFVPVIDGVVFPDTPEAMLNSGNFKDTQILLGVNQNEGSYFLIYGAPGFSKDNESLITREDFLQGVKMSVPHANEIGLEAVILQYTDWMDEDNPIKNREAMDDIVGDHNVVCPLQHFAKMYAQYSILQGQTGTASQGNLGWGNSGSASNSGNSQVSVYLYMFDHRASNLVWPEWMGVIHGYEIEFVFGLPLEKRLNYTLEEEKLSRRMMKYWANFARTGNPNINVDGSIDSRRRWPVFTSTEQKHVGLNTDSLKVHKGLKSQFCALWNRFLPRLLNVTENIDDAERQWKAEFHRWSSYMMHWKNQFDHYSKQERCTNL
T2 sequence (P81908 whole entry): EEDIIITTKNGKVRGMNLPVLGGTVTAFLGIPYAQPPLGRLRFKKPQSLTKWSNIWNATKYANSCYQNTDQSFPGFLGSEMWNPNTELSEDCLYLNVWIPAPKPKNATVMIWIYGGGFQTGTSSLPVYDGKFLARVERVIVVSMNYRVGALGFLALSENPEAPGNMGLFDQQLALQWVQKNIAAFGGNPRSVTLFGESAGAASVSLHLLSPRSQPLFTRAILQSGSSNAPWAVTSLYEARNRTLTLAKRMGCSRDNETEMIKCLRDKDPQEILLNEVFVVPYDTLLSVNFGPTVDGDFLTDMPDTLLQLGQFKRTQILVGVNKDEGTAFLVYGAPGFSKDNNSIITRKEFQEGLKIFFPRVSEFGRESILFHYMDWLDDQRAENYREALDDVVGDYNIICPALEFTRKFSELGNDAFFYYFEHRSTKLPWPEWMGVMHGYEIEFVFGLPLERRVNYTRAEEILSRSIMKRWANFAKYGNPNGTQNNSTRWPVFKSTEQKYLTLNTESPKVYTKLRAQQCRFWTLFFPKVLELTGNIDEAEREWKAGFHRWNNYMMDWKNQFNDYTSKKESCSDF
T1 sequence (P56817 22-501 limits assumed): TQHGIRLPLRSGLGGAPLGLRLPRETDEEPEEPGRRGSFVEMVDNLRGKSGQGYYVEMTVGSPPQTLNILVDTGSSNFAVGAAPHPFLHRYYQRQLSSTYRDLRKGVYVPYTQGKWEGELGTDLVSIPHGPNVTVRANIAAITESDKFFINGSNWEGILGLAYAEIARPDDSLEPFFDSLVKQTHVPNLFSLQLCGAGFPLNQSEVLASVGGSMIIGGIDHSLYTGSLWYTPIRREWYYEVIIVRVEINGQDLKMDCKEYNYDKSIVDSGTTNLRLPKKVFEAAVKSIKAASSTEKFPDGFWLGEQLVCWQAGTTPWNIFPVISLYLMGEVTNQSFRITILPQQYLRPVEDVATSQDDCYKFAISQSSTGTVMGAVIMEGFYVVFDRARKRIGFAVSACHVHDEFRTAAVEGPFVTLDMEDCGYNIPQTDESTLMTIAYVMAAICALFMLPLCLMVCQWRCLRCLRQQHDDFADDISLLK

Row | SMILES | IC50 ([1]; IC50 BACE1, isolated compounds) | IC50 [4] | IC50 [3, 5] | IC50 ([2]; read-out: IC50 BChE) | other results
1 | CC(=O)OCC1=C[C@H](O)[C@@H]2C(C(=O)O)=CO[C@@H](O[C@@H]3O[C@H](CO)[C@@H](O)[C@H](O)[C@H]3O)[C@H]12 [Compound 9, asperulosidic acid] | > 500 µM |  |  |  | IC50 ([2]; IC50 BChE): 80.3 ± 19.8 µM; IC50 ([3]; IC50 AChE, isolated compounds): 68.3 ± 5.11 µM
2 | N=C(N)NN [AMG, aminoguanidine, reference compound] |  |  |  |  | IC50 AGE Formation ([4]; extract and fractions): 131.92 ± 11.24 µg/mL (≈ 1780 µM)
3 | COc1ccc2cc3[n+](cc2c1OC)CCc1cc2c(cc1-3)OCO2 [Berberine, berberine, reference compound] |  |  |  |  | IC50 ([3]; IC50 AChE, extract and fractions): 0.327 µM; IC50 ([3]; IC50 AChE, isolated compounds): 0.31 ± 0.01 µM
4 | COC(=O)C1=CO[C@@H](O[C@@H]2O[C@H](CO)[C@@H](O)[C@H](O)[C@H]2O)[C@@H]2C(CO)=C[C@@H](OC(=O)/C=C/c3ccc(O)cc3)[C@H]12 [Compound 2, 6-O-p-coumaroyl scandoside methyl ester] | 121 ± 14.8 µM | 381 ± 42.7 µM | 298 ± 22.7 µM |  | 
5 | COC(=O)C1=CO[C@@H](O[C@@H]2O[C@H](CO)[C@@H](O)[C@H](O)[C@H]2O)[C@@H]2C(CO)=C[C@@H](OC(=O)/C=C/c3ccc(O)c(OC)c3)[C@H]12 [Compound 3, E-6-O-feruloyl scandoside methyl ester] | 121 ± 11.9 µM |  | 96.8 ± 5.29 µM | 116 ± 29.4 µM | 
6 | COC(=O)C1=CO[C@@H](O[C@@H]2O[C@H](CO)[C@@H](O)[C@H](O)[C@H]2O)[C@@H]2C(CO)=C[C@@H](O)[C@H]12 [Compound 8, scandoside methyl ester] |  |  | 158 ± 13.2 µM | 16.2 ± 2.05 µM | IC50 [1, 6]: > 500 µM
7 | CC(=O)OCC1=C[C@@H]2OC(=O)C3=CO[C@@H](O[C@@H]4O[C@H](CO)[C@@H](O)[C@H](O)[C@H]4O)[C@H]1[C@@H]32 [Compound 5, asperuloside] | > 500 µM | > 1000 µM |  |  | IC50 ([2]; IC50 BChE): > 500 µM; IC50 ([3]; IC50 AChE, isolated compounds): 259 ± 7.48 µM
8 | COC(=O)C1=CO[C@@H](O[C@@H]2O[C@H](CO)[C@@H](O)[C@H](O)[C@H]2O)[C@@H]2C(CO)=C[C@H](O)[C@H]12 [Compound 4, deacetylasperulosidic acid methyl ester] |  |  | 172 ± 20.6 µM | 17.6 ± 0.78 µM | IC50 [1, 6]: > 500 µM
9 | COC(=O)C1=CO[C@@H](O[C@@H]2O[C@H](CO)[C@@H](O)[C@H](O)[C@H]2O)[C@@H]2C(CO)=C[C@@H](OC)[C@H]12 [Compound 7, 6-O-Methylscandoside methyl ester] | > 500 µM |  |  | 11.6 ± 0.68 µM | IC50 AChE ([3]; isolated compounds): did not inhibit AChE
10 | COC(=O)C1=CO[C@@H](O[C@@H]2O[C@H](CO)[C@@H](O)[C@H](O)[C@H]2O)[C@@H]2C(CO)=C[C@H](OC)[C@H]12 [Compound 6, 6-O-Methyldeacetylasperulosidic acid methyl ester] | > 500 µM |  | 81.1 ± 5.58 µM | 32.2 ± 2.8 µM | 
11 | O=c1c(O[C@@H]2O[C@H](CO)[C@@H](O)[C@H](O)[C@H]2O[C@@H]2O[C@H](CO)[C@@H](O)[C@H](O)[C@H]2O)c(-c2ccc(O)c(O)c2)oc2cc(O)cc(O)c12 [compound β, quercetin-3-O-sophoroside] |  |  |  |  | neuroinflammation inhibitory activity (neuroinflammation): does not show effective neuroinflammation inhibitory activity
12 | COc1cc(/C=C/C(=O)OC[C@H]2O[C@@H](O[C@H]3[C@H](Oc4c(-c5ccc(O)c(O)c5)oc5cc(O)cc(O)c5c4=O)O[C@H](CO)[C@@H](O)[C@@H]3O)[C@H](O)[C@@H](O)[C@@H]2O)ccc1O [Compound 10, quercetin-3-O-[2″-O-(6‴-O-E-feruloyl)-β-D-glucopyranosyl]-β-D-glucopyranoside] | 4.49 ± 1.86 µM | 2.71 ± 0.06 µM | 46.2 ± 1.59 µM | 13.8 ± 0.37 µM | 
13 | COC(=O)C1=CO[C@@H](O[C@@H]2O[C@H](CO)[C@@H](O)[C@H](O)[C@H]2O)[C@@H]2C(CO)=C[C@@H](OC(=O)/C=C/c3ccc(O)cc3)[C@H]12 [Compound 1, E-6-O-p-coumaroyl scandoside methyl ester] | 63.3 ± 4.56 µM | 105 ± 14.5 µM | 304 ± 12.2 µM |  | 
